{"source": "patent US20040225019A1", "about": "“Methods of preventing or treating motion sickness” (priority 2003, published 2004)", "key": {"[1]": {"assay": "Questionnaire about side effects after chair ride"}, "[2]": {"test_system": "motion sickness", "assay": "Off-vertical rotation chair motion sickness test", "type": "in vivo, human", "conditions": "for Mean Time (chair time): ride 3 h after drug, placebo 7.2; for Mean Time (chair time) / Mean Motion Sickness Severity Score: n = 18; for Mean Motion Sickness Severity Score: end of chair ride, placebo 18.2", "from_the_text": "Motion sickness was simulated by rotation in a tilted chair, also known as off-vertical rotation (Knox, et al. (1994) Laryngoscope 104(8 Pt 1):935-9; Woodard, et al. (1993) Aviat. Space Environ. Med. 64(5):363-6; Mowrey and Clayson (1982) Lancet 1(8273):655-7; Graybiel and Miller (1970) Aero. Med. 41(4):407-10). Off-vertical rotation produces motion sickness symptoms in more than 90% of subjects tested and has a high test-retest reliability. No provocative head motions are required which minimizes subject fatigue and training. For each run, the chair was tilted to 15 degrees off vertical, and accelerated at 5 degrees/sec^2 to 17.5 revolutions per minute. […] The subject was restrained with a seat belt and shoulder harness. The subject's head was also secured to the headrest with a strap to prevent head movements. Opaque goggles were placed over the subject's eyes.\nThe degree of motion sickness was assessed in three different ways. For the first method, the subjects were instructed how to use a well-known ratio scaling method (Bock and Oman (1982) Aviat. Space Environ. Med. 53(8):773-7) and were given a familiarization run in the chair to experience the motion sickness symptoms. The subjects were instructed to rate the peak overall discomfort they experienced in the familiarization ride as a “10” and to remember this level. They were instructed to rate all other levels of discomfort relative to this level. For example, discomfort which was half as severe would be rated as a “5”. This method is similar other well-known methods (see, e.g., Stott, et al. (1989) Br. J. Clin. Pharma. 27(2):147-57).\nThe second method was symptom recording. Prior to the familiarization run the subjects were instructed about the different symptoms that might occur (drowsiness, epigastric awareness, and the like). The subjects were asked about these symptoms each minute during the rotation and logged on a scoring sheet (Miller and Graybiel (1970) Aero. Med. 41(4):407-10), which was a variant of the Pensacola Diagnostic Rating Scale. The symptoms were assigned points and from these points, five levels of severity were determined (frank sickness, severe malaise, moderate malaise A, moderate malaise B, slight malaise).\nThe third method used to assess motion sickness was to record the total number of minutes the subject rides in the chair before stopping (Woodard, et al. (1993) supra; Mowrey and Clayson (1982) supra).\nThe studies employed a double-blind, placebo controlled, crossover design. […] The placebo was a single lactose capsule. […] The medications were labeled only with the subject's name, identification number and sequence of administration (i.e., Run 1, Run 2, Run 3). […] Both the research team and subjects were unaware of the order of administration.\nPrior to the ride, subjects received a briefing on the symptoms they might experience, how to report those symptoms and instructions on when to stop the test. After the familiarization ride the subjects were instructed to remember their peak overall discomfort as a “10” and to rate all future symptoms relative to that baseline.\nThe subjects rode in the chair once for each treatment (low dose, high dose, and placebo) with at least one week between rides. A one week interval between rides is sufficient to prevent habituation to the rotating stimulus (Kohl (1987) Aviat. Space Environ. Med. 58(2):125-31; Stott, et al (1989) supra).\nTest medications were taken two hours after finishing breakfast. […] On the study day, the subjects came to the lab, performed the cognitive testing battery and were observed taking the test medication. The time of drug ingestion was documented and the subjects returned three hours after taking the medication to complete the cognitive testing battery and ride in the chair. Prior to entering the chair, subjects received a standardized test briefing. Every minute during the testing, subjects were quizzed for motion sickness symptoms and asked to rate their own symptoms on a ratio scale. […]"}, "[3]": {"assay": "Cognitive assessment battery before and after drug and chair ride", "type": "in vivo, human", "conditions": "for Mean Reaction Time: n = 15", "from_the_text": "Test medications were taken two hours after finishing breakfast. […] On the study day, the subjects came to the lab, performed the cognitive testing battery and were observed taking the test medication. The time of drug ingestion was documented and the subjects returned three hours after taking the medication to complete the cognitive testing battery and ride in the chair. Prior to entering the chair, subjects received a standardized test briefing. Every minute during the testing, subjects were quizzed for motion sickness symptoms and asked to rate their own symptoms on a ratio scale. Testing continued until either 20 minutes elapsed, the subject requested testing stop, or severe nausea or vomiting was experienced (i.e., the subject reached a subjective 10 on their scale). Blood pressure, respiratory rate and pulse were measured before and after the chair ride using a Critikon DINAMAP® 1846-SX device.\nA standard cognitive assessment battery (Dinges, et al. (1997) Sleep 20(4):267-7; Neri, et al. (1995) Aviat. Space Environ. Med 66(4):313-9; Richardson, et al. (1996) Sleep 19(9):718-26) used in studies of sleep deprivation (Jewett, et al. (1999) Sleep 22(2):171-9) was used which included both objective and subjective measures of performance and wakefulness. The overall battery takes 20 minutes to administer and has been used successfully on the Neurolab space shuttle mission to assess how sleep loss affected crewmembers.\nThe cognitive tests were performed three times for each chair ride. The first test served as a baseline, the second test was administered at the peak of drug effect and the last test was after the chair ride. In this design, the results of the second test reflect changes due to drug effect, while the results from the third test reflect a combination of drug effect and motion sickness effects."}}, "note": "“Also recorded” adds a separate entry of the source."}
{"smiles": "CN(C)CCC(c1ccc(Cl)cc1)c1ccccn1", "note": "(racemic) [chlorpheniramine]", "values": [{"measurement": "Most commonly reported toxicities", "setting": "[1]; after chair rides, 18 subjects", "result": "drowsiness and dry mouth"}, {"measurement": "Tendency to report a side effect with drug versus placebo", "setting": "[1]; chi-square analysis", "result": "did not reach statistical significance"}, {"measurement": "Mean Time (chair time)", "setting": "[2]; High Dose 12 mg chlorpheniramine capsule", "result": 11.7, "unit": "min"}, {"measurement": "Mean Motion Sickness Severity Score", "setting": "[2]; High Dose 12 mg", "result": 12.4}, {"measurement": "Motion sickness severity score at end of chair ride (significance)", "setting": "[2]; High dose 12 mg versus placebo (p=0.0004) and low dose (p=0.01)", "result": "significantly less"}, {"measurement": "Increase of mean chair time versus placebo", "setting": "[2]; High dose 12 mg, 7.2 to 11.7 minutes", "result": 63, "unit": "%"}, {"measurement": "Effect on chair time versus placebo (significance)", "setting": "[2]; High dose 12 mg, p=0.001", "result": "significantly increased chair time"}, {"measurement": "Mean Time (chair time)", "setting": "[2]; Low Dose 4 mg chlorpheniramine capsule", "result": 10.2, "unit": "min"}, {"measurement": "Mean Motion Sickness Severity Score", "setting": "[2]; Low Dose 4 mg", "result": 16.4}, {"measurement": "Subjects who increased chair time to the maximum (20 minutes)", "setting": "[2]; of 18 subjects, rides stopped at 20 minutes", "result": "Three"}, {"measurement": "Performance in objective tests of addition, tracking and memory", "setting": "[3]; 4 mg and 12 mg doses", "result": "does not affect performance; also recorded: not significantly affected"}, {"measurement": "Mean Reaction Time", "setting": "[3]; High Dose 12 mg, PostDrug", "result": 281.5, "unit": "ms"}, {"measurement": "Mean Reaction Time", "setting": "[3]; High Dose 12 mg, PostRide", "result": 298.4, "unit": "ms"}, {"measurement": "Mean Reaction Time", "setting": "[3]; High Dose 12 mg, PreDrug (baseline before drug)", "result": 265.1, "unit": "ms"}, {"measurement": "Karolinska sleepiness scores", "setting": "[3]; High dose 12 mg, after chair rides, p<0.0001", "result": "higher sleepiness scores"}, {"measurement": "Reaction time (significance)", "setting": "[3]; High dose 12 mg, after the chair rides, p=0.0002", "result": "significantly increased"}, {"measurement": "Scores on the alert-sleepy mood scale", "setting": "[3]; High dose 12 mg, p<0.0001", "result": "significantly changed toward the sleepy portion of the scale"}, {"measurement": "Scores on the clearheaded-groggy mood scale", "setting": "[3]; High dose 12 mg, p<0.0001", "result": "significantly changed toward the groggy portion of the scale"}, {"measurement": "Mean Reaction Time", "setting": "[3]; Low Dose 4 mg, PostDrug", "result": 286.1, "unit": "ms"}, {"measurement": "Mean Reaction Time", "setting": "[3]; Low Dose 4 mg, PostRide", "result": 295.2, "unit": "ms"}, {"measurement": "Mean Reaction Time", "setting": "[3]; Low Dose 4 mg, PreDrug (baseline before drug)", "result": 271.2, "unit": "ms"}]}
